Laboratory results reported in patent US8993542B2, “Methods of treating viral infections” (priority 2008, dated 2015).
Like-named read-outs stand apart in the source and are kept apart here.

Legend:
[1] = test system: HIV; test: microbe, parasite or virus in culture; assay type: cell-based; settings: for IC50: read-out: IC50
[2] = Toxicokinetics and 7-day toxicity after oral administration of CMX157 to rats; assay type: in vivo; settings: rat plasma
[3] = test system: HIV-1IIIB; test: TCID50 determination of drug-treated HIV-1IIIB; assay type: cell-based; parameters: TCID50, XTT Endpoint / TCID50, RT Endpoint / TCID50, P24 Endpoint: unit not given here
[4] = PANEL 40, M41L + L210W + T215Y + M184V
[5] = PANEL 41, M41L + L210W + T215Y + M184V
[6] = PANEL 44, D67N + K70R + T215F + K219E + M184V
[7] = virus treated 2 hours with 125 nM drug
[8] = virus treated 2 hours with 250 nM drug
[9] = virus treated 2 hours with 500 nM drug
[10] = virus treated 2 hours with 1000 nM drug

## C[C@H](Cn1cnc2c(N)ncnc21)OCP(=O)(O)O [TFV, (R)-9-(2-phosphonylmethoxypropyl)adenine]
[1]; PANEL 1, WT
  IC50 Fold Change: 0.79
  IC50: 613 nM
[1]; PANEL 2, WT
  IC50 Fold Change: 0.85
  IC50: 652 nM
[1]; PANEL 3, 6 TAMs, no 184
  IC50 Fold Change: 3.47
  IC50: 2670 nM
[1]; PANEL 6, 6 TAMs + 184
  IC50 Fold Change: 2.16
  IC50: 1670 nM
[1]; PANEL 7, 184V
  IC50 Fold Change: 0.69
  IC50: 534 nM
[1]; PANEL 9, 69ins, no 184
  IC50 Fold Change: 22.00
  IC50: 17000 nM
[1]; PANEL 12, 69ins + 184
  IC50 Fold Change: 4.72
  IC50: 3640 nM
[1]; PANEL 14, 65R, no 184
  IC50 Fold Change: 1.71
  IC50: 1320 nM
[1]; PANEL 15, 65R + 184V
  IC50 Fold Change: 1.22
  IC50: 940 nM
[1]; PANEL 17, L74V
  IC50 Fold Change: 0.62
  IC50: 476 nM
[1]; PANEL 19, L74V + M184V
  IC50 Fold Change: 0.29
  IC50: 227 nM
[1]; PANEL 26, 151M, no 184
  IC50 Fold Change: 2.26
  IC50: 1740 nM
[1]; PANEL 28, 151M + 184
  IC50 Fold Change: 1.43
  IC50: 1100 nM
[1]; PANEL 29, L74V − SDM
  IC50 Fold Change: 0.69
  IC50: 535 nM
[1]; PANEL 30, M184V − SDM
  IC50 Fold Change: 0.54
  IC50: 413 nM
[1]; PANEL 31, K65R − SDM
  IC50 Fold Change: 2.01
  IC50: 1550 nM
[1]; PANEL 33, T215Y
  IC50 Fold Change: 2.39
  IC50: 1840 nM
[1]; PANEL 34, T215Y + M184V
  IC50 Fold Change: 0.81
  IC50: 624 nM
[1]; PANEL 35, M41L + T215Y
  IC50 Fold Change: 1.84
  IC50: 1420 nM
[1]; PANEL 37, M41L + T215Y + M184V
  IC50 Fold Change: 1.34
  IC50: 1030 nM
[1]; PANEL 38, M41L + L210W + T215Y
  IC50 Fold Change: 2.80
  IC50: 2160 nM
[1]; PANEL 39, M41L + L210W + T215Y
  IC50 Fold Change: 3.01
  IC50: 2320 nM
[1]; [4]
  IC50 Fold Change: 0.97
  IC50: 751 nM
[1]; [5]
  IC50 Fold Change: 1.02
  IC50: 789 nM
[1]; PANEL 42, D67N + K70R
  IC50 Fold Change: 2.56
  IC50: 1970 nM
[1]; [6]
  IC50 Fold Change: 0.91
  IC50: 703 nM
[1]; PANEL 45, L210W + T215Y
  IC50 Fold Change: 1.34
  IC50: 1030 nM
[1]; PANEL 46, D67N + K70E
  IC50 Fold Change: 0.96
  IC50: 738 nM
[1]; PANEL 47, D67N + K70E + M184V
  IC50 Fold Change: 0.64
  IC50: 495 nM
[1]; PANEL 48, K70E + M184V
  IC50 Fold Change: 0.61
  IC50: 472 nM
[2]; oral CMX157 10 mg/kg, day 1
  AUC0-24: 510.8 ng·h/mL
  AUC0-∞: 775.2 ng·h/mL
  Cmax: 55.35 ng/mL
  Tmax: 2.0 h
  t1/2elim: 10.9 h
[2]; oral CMX157 10 mg/kg, day 7
  AUC0-24: 964.7 ng·h/mL
  AUC0-∞: 1,226.9 ng · h/ml
  Cmax: 49.55 ng/mL
  Tmax: 2.4 h
  t1/2elim: 9.2 h
[2]; oral CMX157 30 mg/kg, day 1
  AUC0-24: 1,456.1 ng · h/ml
  AUC0-∞: 1,808.1 ng · h/ml
  Cmax: 109.10 ng/mL
  Tmax: 4.0 h
  t1/2elim: 10.1 h
[2]; oral CMX157 30 mg/kg, day 7
  AUC0-24: 2,363.4 ng · h/ml
  AUC0-∞: 2,790.5 ng · h/ml
  Cmax: 149.25 ng/mL
  Tmax: 4.0 h
  t1/2elim: 7.6 h
[2]; oral CMX157 100 mg/kg, day 1
  AUC0-24: 3,039.3 ng · h/ml
  AUC0-∞: 3,639.5 ng · h/ml
  Cmax: 181.40 ng/mL
  Tmax: 12.0 h
  t1/2elim: 7.2 h
[2]; oral CMX157 100 mg/kg, day 7
  AUC0-24: 5,715.4 ng · h/ml
  AUC0-∞: 7,373.4 ng · h/ml
  Cmax: 322.00 ng/mL
  Tmax: 12.0 h
  t1/2elim: 9.0 h
[3]; up to 1000 nM, 2 hours
  effect on viral replication: no discernible effect
[3]; [7]
  Fold Decrease From VC, P24 Endpoint: (0) Fold
  Fold Decrease From VC, RT Endpoint: (1.1) Fold
  Fold Decrease From VC, XTT Endpoint: (1.1) Fold
  TCID50, P24 Endpoint: 43056
  TCID50, RT Endpoint: 72449
  TCID50, XTT Endpoint: 4027
[3]; [8]
  Fold Decrease From VC, P24 Endpoint: (0) Fold
  Fold Decrease From VC, RT Endpoint: (1.1) Fold
  Fold Decrease From VC, XTT Endpoint: (0) Fold
  TCID50, P24 Endpoint: 36227
  TCID50, RT Endpoint: 72449
  TCID50, XTT Endpoint: 4529
[3]; [9]
  Fold Decrease From VC, P24 Endpoint: (0) Fold
  Fold Decrease From VC, RT Endpoint: (0) Fold
  Fold Decrease From VC, XTT Endpoint: (0) Fold
  TCID50, P24 Endpoint: 37328
  TCID50, RT Endpoint: 81289
  TCID50, XTT Endpoint: 4529
[3]; [10]
  Fold Decrease From VC, P24 Endpoint: (0) Fold
  Fold Decrease From VC, RT Endpoint: (1.3) Fold
  Fold Decrease From VC, XTT Endpoint: (0) Fold
  TCID50, P24 Endpoint: 36227
  TCID50, RT Endpoint: 64570
  TCID50, XTT Endpoint: 4529
